Each structure is given as a SMILES string.

Broadly, the EC50 is the concentration needed to bring the measured effect to its halfway point.

The test system of the test is NQO1 specific enzyme activity in BEAS-2B cells (marker for NRF2 activation). Put plainly: Beas2B NQO1 MTT Assay. In kind it is cell-based. To be noted: Homo sapiens, NQO1 specific activity induction, 48 hours with compound. From the text: NAD(P)H:quinone oxidoreductase 1 (NQO1), also called DT diaphorase, is a homodimeric FAD-containing enzyme that catalyses obligatory NAD(P)H-dependent two-electron reductions of quinones and protects cells against the toxic and neoplastic effects of free radicals and reactive oxygen species arising from one-electron reductions. The transcription of NQO1 is finely regulated by NRF2, and thus NQO1 activity is a good marker for NRF2 activation. On day one, frozen BEAS-2B cells (ATCC) were thawed in a water bath, counted, and re-suspended at a concentration of 250,000 cells/mL. Fifty microliters of cells were plated in 384 well black clear-bottomed plates. Plates were incubated at 37° C., 5% CO2 overnight. On day two, plates were centrifuged and 50 nL of compound or controls were added to the cells. Plates were then incubated at 37° C., 5% CO2 for 48 hours. On day four, medium was aspirated from the plate and crude cell lysates were made by adding 13 uL of 1× Cell Signaling Technologies lysis buffer with 1 Complete, Mini, EDTA-free Protease Inhibitor Tablet (Roche) for each 10 mL of lysis buffer. After lysis plates were incubated for 20 minutes at room temperature. Two microliters of lysate were removed for use in Cell Titer Glo assay (Promega) and MTT cocktail was prepared (Prochaska et. al. 1998) for measurement of NQO1 activity. Fifty microliters of MTT cocktail was added to each well, plate was centrifuged, and analysed on an Envision plate reader (Perkin Elmer) using Absorbance 570 nm label for 30 minutes. Product formation was measured kinetically and the pEC50 of NQO1 specific activity induction was calculated by plotting the change in absorbance (Delta OD/min) versus the log of compound concentration followed by 3-parameter fitting.
EC50s <1 nM (+++++), EC50s 10 nM-1 nM (++++), EC50s 10-100 nM (+++), EC50s 100 nM-1 μM (++), EC50s 1-10 μM (+), EC50s >10 μM (−), or were not determined (ND).

Regarding `C[C@H]1Cc2ccc(C(F)(F)F)cc2S(=O)(=O)N(Cc2cccc(-n3ccc(C(=O)O)c3[C@@H]3C[C@H]3c3cn(C)nn3)c2)C1` [Example 4, 1-(3-(((S)-4-methyl-1,1-dioxido-8-(trifluoromethyl)-4,5-dihydrobenzo[f][1,2]thiazepin-2(3H)-yl)methyl)phenyl)-2-((1R,2R)-2-(1-methyl-1H-1,2,3-triazol-4-yl)cyclopropyl)-1H-pyrrole-3-carboxylic acid], the EC50 lay within 1 to 10 nM. In the case of `CCC[C@@H]1CCCCN1C(=O)c1cccc(-c2cccc(-n3ccc(C(=O)O)c3[C@@H]3C[C@H]3c3cn(C)nn3)c2)c1F` [Example 16, 1-(2′-fluoro-3′-((R)-2-propylpiperidine-1-carbonyl)-[1,1′-biphenyl]-3-yl)-2-((1R,2R)-2-(1-methyl-1H-1,2,3-triazol-4-yl)cyclopropyl)-1H-pyrrole-3-carboxylic acid], the EC50 is 1 to 10 nM.

For the molecule `C[C@H](Oc1cccc(-c2cccc(-n3ccc(C(=O)O)c3[C@@H]3C[C@H]3c3cn(C)nn3)c2)c1)C1CCCCC1` [Example 18, 1-(3′-((S)-1-cyclohexylethoxy)-[1,1′-biphenyl]-3-yl)-2-((1R,2R)-2-(1-methyl-1H-1,2,3-triazol-4-yl)cyclopropyl)-1H-pyrrole-3-carboxylic acid], the EC50 fell in the range of 10 to 100 nM.

For the origin of these results see US20200031820A1, “3-CARBOXYLIC ACID PYRROLES AS NRF2 REGULATORS” (GLSXOSMITHKLINE INTELLECTUAL PROPERTY DEVELOPMENT LIMITED, priority 2016, published 2020).
